Results taken from patent US4656178A (priority 1985, dated 1987).
Structures can show the parent of a compound that is named as a salt. Where two headings read alike, the source gives them in different places.

Legend:
aconitine arrhythmia = format: in vivo, rats
Method: The atrioventricular arrhythmia caused by aconitine is one of the most reliable models for forecasting the efficiency of the antiarrhythmic action of the novel preparation in clinics. The experiments were conducted on both narcotized and non-narcotized animals. The preparation was administered per os, intramuscularly, intraperitoneally and intravenously 5 to 15 minutes prior to or 3-5 minutes after the administration of aconitine.
The antiarrhythmic activity of the pharmaceutical composition according to the present invention upon administration thereof against the background of a developing aconitine arrhythmia (therapeutic effect) was studied on 110 narcotized rats. The preparation was intravenously administered at intervals of 3-6 minutes against the background of the originated arrhythmia.

[1] = tested on: lethal fibrillation of the heart induced by aconitine; experiment: prevention of lethal fibrillation of the heart induced by aconitine in rats; format: in vivo; settings: 0.5 and 1 mg/kg
[2] = tested on: cardiac arrhythmia induced by barium chloride; experiment: cardiac arrhythmia induced by barium chloride; format: in vivo, narcotized rats and intact rabbits; settings: 0.1 mg/kg, injected 10 minutes prior to barium
Method: The study of the antiarrhythmic activity of the preparation according to the present invention on a model of cardiac arrhythmia induced by barium chloride was carried out on 56 narcotized rats and 16 intact rabbits. The preparation of the present invention in the dose of 0.1 mg/kg injected 10 minutes prior to administration of barium prevented the development of arrhythmia in 86.6% of the animals.

[3] = tested on: cardiac arrhythmia caused by ligation of the descending branch of the left coronary artery; experiment: cardiac arrhythmia caused by ligation of the descending branch of the left coronary artery (Harris method) in dogs; format: in vivo
Method: The effect of the preparation according to the present invention on the cardiac arrhythmia caused by ligation of the descending branch of the left coronary artery by the Harris method was studied in experiments on dogs. The preparation according to the present invention was intravenously administered on the first and second post-operative days. Preliminarily, prior to every experiment 30 to 45 minutes before the administration of the preparation the background changes of the dogs' electrocardiogram (ECG) were recorded. […] In 40% thereof a full suppression of ectopic contractions was noticed for 3-3.5 hours, whereafter arrhythmia appeared with the intensity thereof not reaching the initial background during 7 hours.

[4] = tested on: arrhythmia caused by electrical irritation; experiment: arrhythmia caused by electrical irritation of the right auricle and apex of the left ventricle; format: in vivo, dogs and cats
[5] = tested on: arrhythmia induced by adrenalin; experiment: arrhythmia induced by adrenalin in dogs with ligated coronary artery; format: in vivo; settings: 0.1-0.2 mg/kg
[6] = tested on: cardiac conductive system; format: in vivo, narcotized rats, cats, intact rabbits and dogs
Description: To investigate the character of the effect produced on the functions of the cardiac conductive system by the preparation according to the present invention, the ECG changes appearing in narcotized rats, cats, intact rabbits and dogs under the action of the preparation of this invention were studied. […] The effect of the preparation is retained for a long time.

antiinflammatory effect = format: in vivo; settings: doses of 1-5 mg/kg
[7] = resorptive effect and toxicity (general state); format: in vivo, mice, rats, rabbits and dogs
Description: The resorptive effect and toxicity of the preparation according to the present invention were studied on mice, rats, rabbits and dogs.

[8] = 6-month histological toxicity, dogs; format: in vivo; settings: per os, 1 and 5 mg/kg, 6 months
[9] = 6-month histological toxicity, rabbits; format: in vivo; settings: intravenous, 0.1 and 0.5 mg/kg, 6 months
carcinogenicity = format: in vivo; settings: subcutaneously and per os, 0.5-2 mg/kg, 6 months, observation 2 years
[10] = tested on: cardiac rhythm disturbances; experiment: clinical study in patients with cardiac rhythm disturbances; format: in vivo, human
Method: The clinical study of the preparation according to the present invention was carried out on 200 patients suffering from various diseases accompanied by different cardiac rhythm disturbances (ischemic heart disease, diverse kinds of cardiomyopathy). The preparation was administered intravenously using 1-2 ampoules (0.5% solution of the preparation, 2 ml) and per os in tablets of 50 mg each (2-3 tablets a day during the first 2 days and 1-2 tablets a day during all following days). ECG characteristics, arterial pressure, heart beat rate and various parameters of hemodynamics were recorded.

[11] = duration of antiarrhythmic effect compared with quinidine and novocainamide; settings: in vivo
Method: The duration of the antiarrhythmic action of the preparation was studied on rats intravenously administered with aconitine 1, 2, 4, 6, 24 and 48 hours after the preparation administration per os.

[12] = tested on: cardiotoxic effect of the preparation; experiment: sodium bicarbonate at cardiotoxic effect of the preparation in dogs; settings: toxic doses

For `CCN1CC2(OC(=O)c3ccccc3NC(C)=O)CCC(OC)C34C1C(CC23)C1(O)CC(OC)C2CC4C1(O)C2OC` (stereo not shown) [lappaconitine hydrobromide], the “animals with complete restoration of normal sinus rhythm” value (aconitine arrhythmia; 0.1 mg/kg intravenously) was 50%, the “time to restoration of normal sinus rhythm” value (aconitine arrhythmia; 0.1 mg/kg, control arrhythmia lasts 120 minutes) was 30 to 35 min and the “complete elimination of arrhythmia and restoration of correct sinus rhythm” value (aconitine arrhythmia; 0.3 to 0.5 mg/kg) was “complete elimination of arrhythmia and restoration of the correct sinus rhythm in all the animals”. For the same compound, the “time to complete elimination of arrhythmia” value (aconitine arrhythmia; 0.3 to 0.5 mg/kg) was 1 to 2 min, the “antiarrhythmic index (LD50/ED50)” value (aconitine arrhythmia; against background of developing aconitine arrhythmia) was 59 and the “prevention of lethal fibrillation of the heart” value [1] was “fully prevents a lethal fibrillation of the heart”. For the same compound, the “animals in which development of arrhythmia is prevented” value [2] was 86.6%, the “animals with antiarrhythmic effect” value ([3]; 0.5 mg/kg intravenously) was 86% and the “animals with 100% antiarrhythmic effect over 5 hours” value ([3]; 1 mg/kg) was 60%. For the same compound, the “animals with full suppression of ectopic contractions for 3-3.5 hours” value ([3]; 1 mg/kg) was 40%, the “animals with full inhibition of ventricular extrasystole” value ([3]; 1 mg/kg intravenously) was 100% and the “duration of full suppression of ectopic contractions” value ([3]; 1 mg/kg, in 40% of the animals) was 3 to 3.5 h. For the same compound, the “time during which reappearing arrhythmia does not reach the initial background” value ([3]; 1 mg/kg, in 40% of the animals) was 7 h, the “duration of 100% antiarrhythmic effect” value ([3]; 1 mg/kg, in 60% of the animals) was “over 5 hours” and the heart beat rate ([3]; accompanying reduction or arresting of arrhythmia, all experiments) was “reduction of the heart beat rate”. The “time of appearance of antiarrhythmic effect” value ([3]; after intravenous administration) was 5 to 15 min, the “activity relative to novocainamide (times more active)” value ([3]; dog, in vivo) was 70 times and the “duration and rapidity of effect relative to novocainamide” value ([3]; dog, in vivo) was “considerably superior to it in the duration of the effect, but inferior to novocainamide in the rapidity of occurrence of the antiarrhythmic effect”. For the same compound, the “relationship of effect to dose” value ([3]; dog, in vivo) was “in a direct relationship with the administered dose”, the “arterial pressure and amplitude of the heart beat” value ([4]; 0.25 and 0.5 mg/kg) was “not changed” and the “duration of antiarrhythmic effect” value ([4]; 0.25 and 0.5 mg/kg) was 2 to 3 h. For the same compound, the “arrest of arrhythmia caused by electrical irritation” value ([4]; 0.25 and 0.5 mg/kg intravenously, 7 dogs and 10 cats) was “fully stops the origination of arrhythmia”, the “onset of antiarrhythmic effect” value ([4]; after administration, 0.25 and 0.5 mg/kg) was 3 to 7 min and the “activity relative to quinidine and novocainamide (times superior)” value ([4]; dog, in vivo) was 40 times. The duration of effect [5] was “more than 2 hours”, the “effect on arrhythmia induced by adrenalin” value [5] was “cuts short the arrhythmia induced by adrenalin” and the “effect on arterial pressure and on adrenalin hypertension” value [5] was “does not affect the level of arterial pressure or the height of elevation of arterial pressure (hypertension) caused by adrenalin”. For the same compound, the “time to maximum effect” value [5] was 5 to 10 min, the “effect on ECG” value ([6]; 1-2 mg/kg) was “increase the ranges PQ, QRS, QT, insignificantly R-R; the ripple S is deepened, the amplitude of the ripple T is uniformly increased” and the “effect on myocardial conductivity and sinus node automatism” value ([6]; in vivo) was “lowers conductivity of the myocardium and, to a lesser extent, automatism of the sinus node”. For the same compound, the “sublethal and lethal doses” value ([6]; intravenous) was 4 to 6 mg/kg, the “effect on ECG” value ([6]; intravenous, 0.5 mg/kg) was “deceleration of the atrioventricular conductivity and a certain rarification of the rhythm” and the “effect on ECG” value ([6]; intravenous, 4-6 mg/kg) was “growing inhibition of conductivity along the cardiac conducting system”. For the same compound, the “effect on ECG” value ([6]; rats, intravenous, 0.05 to 0.25 mg/kg) was “does not cause in rats any substantial effect on the ECG”, the antiinflammatory effect (antiinflammatory effect) was “pronounced antiinflammatory effect” and the “changes in general state of animals” value ([7]; 0.1-1 mg/kg intravenously, 1-5 mg/kg intraperitoneally, 5-20 mg/kg per os) was “no considerable changes in the general state of the animals are observed”. For the same compound, the “signs in mice and rats” value ([7]; higher doses, 5 minutes on average after administration) was “adynamia, delayed responses, weakening of the muscular tension, rarification and deepening of breathing, lowering of the body temperature”, the additional signs ([7]; sublethal and lethal doses) was “hypersalivation, diarrhea, acute disturbances of breathing” and the “destructive changes of inner organs and tissues” value [8] was “no destructive changes on the part of inner organs and tissues”. For the same compound, the “destructive changes of inner organs and tissues” value [9] was “no destructive changes on the part of inner organs and tissues”, the carcinogenic properties (carcinogenicity) was “no carcinogenic properties” and the efficiency by form ([10]; course treatment) was “more efficient for course treatment in tabletted forms”. For the same compound, the contraindications ([10]; human, in vivo) was “No contraindications”, the “side effects (hypotension, changed heart beat rate, pulse, breathing)” value ([10]; patients) was “not observed” and the “antiarrhythmic effect in patients” value ([10]; patients with stable form of ventricular and supraventricular extrasystole) was “pronounced antiarrhythmic effect”. For the same compound, the “side effects in some cases” value ([10]; per os, intramuscular or intravenous) was “weakness or giddeness”, the “time after which side effects pass” value ([10]; weakness or giddeness) was 10 to 15 min and the “duration of effect relative to quinidine and novocainamide” value [11] was 10 times. For the same compound, the “arterial pressure in overdosing” value [12] was “reduction of the arterial pressure”.
